The record followed here is ChEMBL document CHEMBL1143087, “Indirect oxidation of the antitumor agent procarbazine by tyrosinase--possible application in designing anti-melanoma prodrugs” (Bioorg Med Chem Lett, 2008).

Structures are written as SMILES. Activity calls are given as the source filed them. The calls are words filed in the database; no cut-off is given here.

In the assay the target is T1, Tyrosinase (Agaricus bisporus) (UniProt O42713).
T1 sequence (whole entry): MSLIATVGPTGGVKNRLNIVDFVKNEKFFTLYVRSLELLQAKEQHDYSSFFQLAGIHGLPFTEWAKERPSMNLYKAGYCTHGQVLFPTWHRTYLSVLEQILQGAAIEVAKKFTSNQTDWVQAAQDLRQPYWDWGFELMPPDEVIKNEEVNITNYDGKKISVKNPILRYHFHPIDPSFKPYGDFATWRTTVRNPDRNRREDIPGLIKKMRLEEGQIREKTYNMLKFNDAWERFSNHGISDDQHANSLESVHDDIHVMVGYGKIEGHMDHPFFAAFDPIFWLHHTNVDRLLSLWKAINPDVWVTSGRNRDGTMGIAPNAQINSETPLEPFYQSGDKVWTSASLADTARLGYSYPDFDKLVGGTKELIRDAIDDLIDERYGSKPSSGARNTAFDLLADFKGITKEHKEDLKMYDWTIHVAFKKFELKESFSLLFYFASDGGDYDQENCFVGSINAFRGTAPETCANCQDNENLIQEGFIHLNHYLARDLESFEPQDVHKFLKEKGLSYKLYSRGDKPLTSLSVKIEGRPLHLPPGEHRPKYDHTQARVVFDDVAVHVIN
Nature of the assay: Increase in mushroom tyrosinase catalysed oxidation of 4-tert-butyl catechol assessed as oxygen consumption after 30 mins.

Take `CNNCc1ccc(C(=O)NC(C)C)cc1`: the result was Active.
